Laboratory results from US10597388B2, “Pyridazinone herbicides” (FMC CORPORATION, priority 2014, dated 2020).

Key:
Assay type in all cases: in vivo
[1] = test system: oat, wild (wild oat, Avena fatua); test: Test C greenhouse herbicide test, postemergence
In short: (§1)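 Steps: pot plants in peat-based medium; spray postemergence at 1- to 4-leaf stage; hold in greenhouse 13 to 15 d; score visually against controls from 0 (no effect) to 100 (complete control).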

kochia (Kochia scoparia) = test: Test C greenhouse herbicide test, postemergence
In short: as §1

[2] = test system: oilseed rape (Brassica napus); test: Test C greenhouse herbicide test, pre- and postemergence
In short: (§2)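 Greenhouse pots; pre-em on seeded loam:sand blend, post-em on 2–18 cm plants (1–4 leaf) in sphagnum peat/vermiculite medium. Formulation: non-phytotoxic solvent + surfactant. Read-out: visual % control (0–100) vs controls at 13–15 d.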

[3] = test system: waterhemp (common waterhemp, Amaranthus rudis); test: as above
In short: as §2

[4] = test system: lambsquarters (Chenopodium album); test: as above
In short: as §2

corn (Zea mays) = test: as above
In short: as §2

[5] = test system: foxtail, giant (giant foxtail, Setaria faberii); test: as above
In short: as §2

[6] = test system: nutsedge, yellow (yellow nutsedge, Cyperus esculentus); test: as above
In short: as §2

[7] = test system: morningglory (Ipomoea coccinea); test: as above
In short: as §2

[8] = test system: barnyardgrass (Echinochloa crus-galli); test: as above
In short: as §2

[9] = test system: johnsongrass (Sorghum halepense); test: as above
In short: as §2

[10] = test system: blackgrass (Alopecurus myosuroides); test: as above
In short: as §2

[11] = test system: pigweed (Amaranthus retroflexus); test: as above
In short: as §2

[12] = test system: wheat (winter wheat, Triticum aestivum); test: as above
In short: as §2

[13] = test system: crabgrass, large (large crabgrass, Digitaria sanguinalis); test: as above
In short: as §2

[14] = test system: velvetleaf (Abutilon theophrasti); test: as above
In short: as §2

[15] = Postemergence, 31 g ai/ha, 0 to 100 scale (0 no effect, 100 complete control)
[16] = Postemergence, 125 g ai/ha, scale 0 to 100, 0 is no effect, 100 is complete control
[17] = Postemergence, 250 g ai/ha, scale 0 to 100, 0 no effect, 100 complete control, 13 to 15 d
[18] = postemergence, 62 g ai/ha, scale 0 to 100, 0 no effect, 100 complete control
[19] = Preemergence, 31 g ai/ha, scale 0 to 100, 0 is no effect, 100 is complete control
[20] = Preemergence, 62 g ai/ha, scale 0 to 100, 0 is no effect, 100 is complete control
[21] = Preemergence, 125 g ai/ha, scale 0 to 100, 0 is no effect, 100 is complete control
[22] = Preemergence, 250 g ai/ha, scale 0 to 100 (0 no effect, 100 complete control)

Cc1ccc2ccccc2c1-c1c(O)c(C)nn(C)c1=O [Compound 59]
Oat, Wild plant response rating [1, 15]: 80 | Plant response rating, Oat, Wild [1, 16]: 90 | Plant response rating, Oat, Wild [1, 17]: 98 | Oat, Wild plant response rating [1, 18]: 75 | Kochia plant response rating (kochia (Kochia scoparia); [15]): 95 | Plant response rating, Kochia (kochia (Kochia scoparia); [16]): 85 | Plant response rating, Kochia (kochia (Kochia scoparia); [17]): 90 | Kochia plant response rating (kochia (Kochia scoparia); [18]): 85 | Oilseed Rape plant response rating [2, 15]: 5 | Plant response rating, Oilseed Rape [2, 16]: 40 | Plant response rating, Oilseed Rape [2, 17]: 55 | Plant response rating, Oilseed Rape [2, 19]: 65 | Plant response rating, Oilseed Rape [2, 20]: 80 | Plant response rating, Oilseed Rape [2, 21]: 95 | Oilseed Rape plant response rating [2, 22]: 95 | Oilseed Rape plant response rating [2, 18]: 50 | Waterhemp plant response rating [3, 15]: 85 | Plant response rating, Waterhemp [3, 16]: 98 | Plant response rating, Waterhemp [3, 17]: 100 | Plant response rating, Waterhemp [3, 19]: 95 | Plant response rating, Waterhemp [3, 20]: 100 | Plant response rating, Waterhemp [3, 21]: 100 | Waterhemp plant response rating [3, 22]: 100 | Waterhemp plant response rating [3, 18]: 90 | Lambsquarters plant response rating [4, 15]: 90 | Plant response rating, Lambsquarters [4, 16]: 98 | Plant response rating, Lambsquarters [4, 17]: 98 | Plant response rating, Lambsquarters [4, 19]: 70 | Plant response rating, Lambsquarters [4, 20]: 90 | Plant response rating, Lambsquarters [4, 21]: 95 | Lambsquarters plant response rating [4, 22]: 95 | Lambsquarters plant response rating [4, 18]: 95 | Corn plant response rating (corn (Zea mays); [15]): 5 | Plant response rating, Corn (corn (Zea mays); [16]): 65 | Plant response rating, Corn (corn (Zea mays); [17]): 50 | Plant response rating, Corn (corn (Zea mays); [19]): 0 | Plant response rating, Corn (corn (Zea mays); [20]): 20 | Plant response rating, Corn (corn (Zea mays); [21]): 50 | Corn plant response rating (corn (Zea mays); [22]): 65 | Corn plant response rating (corn (Zea mays); [18]): 45 | Foxtail, Giant plant response rating [5, 15]: 45 | Plant response rating, Foxtail, Giant [5, 16]: 85 | Plant response rating, Foxtail, Giant [5, 17]: 90 | Plant response rating, Foxtail, Giant [5, 19]: 80 | Plant response rating, Foxtail, Giant [5, 20]: 95 | Plant response rating, Foxtail, Giant [5, 21]: 98 | Foxtail, Giant plant response rating [5, 22]: 100 | Foxtail, Giant plant response rating [5, 18]: 60 | Nutsedge, Yellow plant response rating [6, 15]: 65 | Plant response rating, Nutsedge, Yellow [6, 16]: 95 | Plant response rating, Nutsedge, Yellow [6, 17]: 95 | Plant response rating, Nutsedge, Yellow [6, 19]: 80 | Plant response rating, Nutsedge, Yellow [6, 20]: 80 | Plant response rating, Nutsedge, Yellow [6, 21]: 85 | Nutsedge, Yellow plant response rating [6, 22]: 90 | Nutsedge, Yellow plant response rating [6, 18]: 85 | Morningglory plant response rating [7, 15]: 95 | Plant response rating, Morningglory [7, 16]: 100 | Plant response rating, Morningglory [7, 17]: 100 | Plant response rating, Morningglory [7, 19]: 98 | Plant response rating, Morningglory [7, 20]: 100 | Plant response rating, Morningglory [7, 21]: 100 | Morningglory plant response rating [7, 22]: 100 | Morningglory plant response rating [7, 18]: 100 | Barnyardgrass plant response rating [8, 15]: 20 | Plant response rating, Barnyardgrass [8, 16]: 55 | Plant response rating, Barnyardgrass [8, 17]: 70 | Plant response rating, Barnyardgrass [8, 19]: 30 | Plant response rating, Barnyardgrass [8, 20]: 70 | Plant response rating, Barnyardgrass [8, 21]: 90 | Barnyardgrass plant response rating [8, 22]: 95 | Barnyardgrass plant response rating [8, 18]: 30 | Johnsongrass plant response rating [9, 15]: 5 | Plant response rating, Johnsongrass [9, 16]: 25 | Plant response rating, Johnsongrass [9, 17]: 35 | Plant response rating, Johnsongrass [9, 19]: 5 | Plant response rating, Johnsongrass [9, 20]: 25 | Plant response rating, Johnsongrass [9, 21]: 45 | Johnsongrass plant response rating [9, 22]: 65 | Johnsongrass plant response rating [9, 18]: 5 | Blackgrass plant response rating [10, 15]: 65 | Plant response rating, Blackgrass [10, 16]: 85 | Plant response rating, Blackgrass [10, 17]: 90 | Plant response rating, Blackgrass [10, 19]: 85 | Plant response rating, Blackgrass [10, 20]: 90 | Plant response rating, Blackgrass [10, 21]: 90 | Blackgrass plant response rating [10, 22]: 98 | Blackgrass plant response rating [10, 18]: 80 | Pigweed plant response rating [11, 15]: 90 | Plant response rating, Pigweed [11, 16]: 95 | Plant response rating, Pigweed [11, 17]: 98 | Plant response rating, Pigweed [11, 19]: 100 | Plant response rating, Pigweed [11, 20]: 100 | Plant response rating, Pigweed [11, 21]: 100 | Pigweed plant response rating [11, 22]: 100 | Pigweed plant response rating [11, 18]: 95 | Wheat plant response rating [12, 15]: 0 | Plant response rating, Wheat [12, 16]: 10 | Plant response rating, Wheat [12, 17]: 15 | Plant response rating, Wheat [12, 19]: 60 | Plant response rating, Wheat [12, 20]: 60 | Plant response rating, Wheat [12, 21]: 75 | Wheat plant response rating [12, 22]: 85 | Wheat plant response rating [12, 18]: 20 | Crabgrass, Large plant response rating [13, 15]: 15 | Plant response rating, Crabgrass, Large [13, 16]: 25 | Plant response rating, Crabgrass, Large [13, 17]: 60 | Plant response rating, Crabgrass, Large [13, 19]: 25 | Plant response rating, Crabgrass, Large [13, 20]: 70 | Plant response rating, Crabgrass, Large [13, 21]: 85 | Crabgrass, Large plant response rating [13, 22]: 100 | Crabgrass, Large plant response rating [13, 18]: 20 | Velvetleaf plant response rating [14, 15]: 80 | Plant response rating, Velvetleaf [14, 16]: 90 | Plant response rating, Velvetleaf [14, 17]: 95 | Plant response rating, Velvetleaf [14, 19]: 85 | Plant response rating, Velvetleaf [14, 20]: 90 | Plant response rating, Velvetleaf [14, 21]: 98 | Velvetleaf plant response rating [14, 22]: 100 | Velvetleaf plant response rating [14, 18]: 85
